Source: patent US20250179024A1, “AMYLOID AND ASSOCIATED PATHOLOGY MODULATORS AND METHODS THEREOF” (Jawaharlal Nehru Centre for Advanced Scientific Research, priority 2022, published 2025)

What was measured:
[1] = target: T1, Aβ in the presence of Zn (II) (Homo sapiens, UniProt P05067); assay: Zn-dependent Aβ aggregation, native PAGE and western blot; format: biochemical; settings: Aβ 10 μM, Zn (II) 20 μM, NMIs 20 μM, 37° C., 48 h
T1 construct: is a 42 amino acid proteolytic product from the amyloid precursor protein; purchased Invitrogen
Description: The samples were prepared by incubating Aβ42 with specific concentration of NMI compounds of present disclosure and metal ions for 48 h and then subjected to 6% native polyacrylamide gel electrophoresis (Native-PAGE) in tris-glycine buffer. The lower molecular weight aggregates permeabilized through the gel and resolved in the gel. Higher molecular aggregates stuck in the upper part of wells and potentially carried in gel. Then the protein was transferred to PVDF membrane for 4 h at cold condition maintained using ice cold transfer buffer and immersing the transfer apparatus in ice. Then the blots were continued similar to dot blots.
The absorbance and fluorescence spectroscopy studies together with mass spectrometry data confirmed the selective Cu (II) or Zn (II) chelation property of M1 and M3. […] Aβ (10 μM) was incubated in the presence of Cu (II) or Zn (II) (20 μM) with NMIs at 37° C. for 48 h and the samples were subjected to native PAGE and western blot analysis. […] Modulation of Zn-dependent Aβ aggregation by M4 was attributed to its two Zn (II) chelation centres. M3 with dopamine and DPA moieties effectively modulated both Cu (II) and Zn (II)-dependent Aβ aggregation. The effect of NMIs on the morphological outcome of metal-dependent Aβ aggregation was visualized by AFM imaging (FIGS. 1E and 1F). Aβ in the presence of Cu (II) and Zn (II) formed dense and thick fibrils.

[2] = target: T2, Aβ (Homo sapiens, UniProt P05067); assay: AFM imaging of Aβ samples; settings: Aβ 10 μM, NMIs 20 μM; FIG. 1C
T2 construct: is a 42 amino acid proteolytic product from the amyloid precursor protein; purchased Invitrogen
Description: AFM imaging was done to understand the morphological characteristics of Aβ and NMI treated samples. The samples from Aβ aggregation inhibition and dissolution studies were used for AFM imaging. 25 μL of sample was drop-casted on freshly cleaved mica substrate. The Aβ samples were allowed to adhere to substrate surface for 15 min, washed with filtered MiliQ water and air dried. The samples were imaged in Scan assist Air mode in Bioscope resolve AFM system (Bruker). The images were processed and analyzed using NanoScope analysis software. […] It has been observed that the oligomers are a highly toxic species compared to Aβ fibrillar aggregates. The ability of NMIs (M3) to inhibit the formation of Aβ oligomers was assessed by dot blot assay. Aβ peptide (10 μM) was incubated with NMIs at 4° C. for 24 h followed by probing with A11 oligomer-specific antibody. […] Native PAGE and western blot analysis was carried out to understand the size distribution of Aβ aggregated species. […] In order to analyse the higher order aggregates not permeable in the gel matrix and the morphological characteristics, Aβ samples were subjected to atomic force microscopy (AFM) imaging.

[3] = target: T3, Aβ fibrils (Homo sapiens, UniProt P05067); assay: Dot blot assay of Aβ fibrillar aggregation inhibition (OC antibody); format: biochemical; settings: Aβ 10 μM, NMIs 20 μM, PBS pH 7.4, 37° C., 48 h
T3 construct: is a 42 amino acid proteolytic product from the amyloid precursor protein; purchased Invitrogen
Description: Aggregation modulation by toxic Aβ aggregates were assessed and were quantified by dot blot assay. Aβ peptide (10 μM) was dissolved in phosphate buffered saline (PBS, 10 mM, pH 7.4), incubated alone and with NMIs (20 μM) at 37° C. for 48 h. For concentration dependent inhibition, 10 μM Aβ peptide was incubated with 1, 2, 5, 10 and 20 μM of NMIs and incubated. Samples for oligomer inhibition studies were prepared by incubating Aβ alone and with NMIs at 4° C. for 24 and subjected to dot blot analysis. For dissolution studies, Aβ peptide alone was incubated in PBS for 48 h to prepare fibrils and then incubated with NMIs further for 48 h. For dot blot experiment, 5 μL of sample was blotted on activated PVDF (polyvinylidene fluoride) membrane in triplicates and air dried. The membrane was blocked with skimmed milk powder for 1 h at room temperature. The blot paper was washed with tris-buffered saline with 0.01% Tween 20 (TBST) three times for 5 min. Blot paper was treated with fibril specific OC primary antibody (Rabbit, 1:1000 dilution) overnight at 4° C. For oligomers blot A11 anti-oligomer antibody (Rabbit 1:1000) was used. Blot was washed thrice with TBST and treated with HRP-conjugated antirabbit secondary antibody (1:5000 dilutions) for 1 h at room temperature. The bolt was washed thrice for 5 min with TBST and developed with ECL reagent (Biorad) and imaged with ChemiDoc BioRad gel documentation system in autoexposure mode. Blots were analyzed and quantified by ImageJ software. The ability of the NMIs, the compounds of the present disclosure M1-M4 to inhibit Aβ aggregation and dissolve the preformed fibrillar aggregates was evaluated by dot blot assay as explained in Example 2 above. Aβ (10 μM) was incubated alone and with NMIs (20 μM) in phosphate buffer saline (PBS, 10 mM and pH 7.4) at 37° C. for 48 h to form Aβ fibrillar aggregates. The samples were blotted and probed with fibril-selective OC antibody (rabbit anti-human amyloid fibrils). […] M3 was further assessed for inhibitory effect at lower concentrations. […] It has been observed that the oligomers are a highly toxic species compared to Aβ fibrillar aggregates. The ability of NMIs (M3) to inhibit the formation of Aβ oligomers was assessed by dot blot assay. Aβ peptide (10 μM) was incubated with NMIs at 4° C. for 24 h followed by probing with A11 oligomer-specific antibody. […] Native PAGE and western blot analysis was carried out to understand the size distribution of Aβ aggregated species. […] In order to analyse the higher order aggregates not permeable in the gel matrix and the morphological characteristics, Aβ samples were subjected to atomic force microscopy (AFM) imaging.

[4] = Metal chelation by UV-visible absorbance and fluorescence spectra; format: physicochemical; settings: NMIs 20 μM, Cu or Zn 2.5 to 40 μM
Source text: The compounds of the present disclosure (NMIs) were designed to chelate with metals (Cu and Zn) and alleviate the metal-dependent Aβ toxicity. […] The change in absorbance and fluorescence spectra of NMIs were monitored to understand the interaction with Cu(II) and Zn(II). […] The fluorescence intensity of M3 at 525 nm decreased with the increasing concentration of Cu(II) or Zn(II) (FIGS. 6(A & B)).

[5] = target: T4, preformed Aβ fibrillar aggregates (Homo sapiens, UniProt P05067); assay: Dot blot assay of dissolution of preformed Aβ fibrillar aggregates; format: biochemical; settings: Aβ aggregates 10 μM, NMIs 20 μM, 48 h
T4 construct: is a 42 amino acid proteolytic product from the amyloid precursor protein; purchased Invitrogen
Description: Aggregation modulation by toxic Aβ aggregates were assessed and were quantified by dot blot assay. Aβ peptide (10 μM) was dissolved in phosphate buffered saline (PBS, 10 mM, pH 7.4), incubated alone and with NMIs (20 μM) at 37° C. for 48 h. For concentration dependent inhibition, 10 μM Aβ peptide was incubated with 1, 2, 5, 10 and 20 μM of NMIs and incubated. Samples for oligomer inhibition studies were prepared by incubating Aβ alone and with NMIs at 4° C. for 24 and subjected to dot blot analysis. For dissolution studies, Aβ peptide alone was incubated in PBS for 48 h to prepare fibrils and then incubated with NMIs further for 48 h. For dot blot experiment, 5 μL of sample was blotted on activated PVDF (polyvinylidene fluoride) membrane in triplicates and air dried. The membrane was blocked with skimmed milk powder for 1 h at room temperature. The blot paper was washed with tris-buffered saline with 0.01% Tween 20 (TBST) three times for 5 min. Blot paper was treated with fibril specific OC primary antibody (Rabbit, 1:1000 dilution) overnight at 4° C. For oligomers blot A11 anti-oligomer antibody (Rabbit 1:1000) was used. Blot was washed thrice with TBST and treated with HRP-conjugated antirabbit secondary antibody (1:5000 dilutions) for 1 h at room temperature. The bolt was washed thrice for 5 min with TBST and developed with ECL reagent (Biorad) and imaged with ChemiDoc BioRad gel documentation system in autoexposure mode. Blots were analyzed and quantified by ImageJ software. The fibrillar aggregates were formed by incubating Aβ peptide (10 μM) in PBS (pH 7.4) at 37° C. for 48 h. The aggregate samples were treated with NMIs (20 μM) for 48 h followed by dot blot analysis. […] These studies confirmed that M3 as the potential candidate to dissolve Aβ fibrillar aggregates to possibly nontoxic species.

[6] = target: T5, Aβ oligomers (Homo sapiens, UniProt P05067); assay: Dot blot assay of Aβ oligomer inhibition (A11 antibody); format: biochemical; settings: Aβ 10 μM, NMIs 20 μM, 4° C., 24 h
T5 construct: is a 42 amino acid proteolytic product from the amyloid precursor protein; purchased Invitrogen
Description: Aggregation modulation by toxic Aβ aggregates were assessed and were quantified by dot blot assay. Aβ peptide (10 μM) was dissolved in phosphate buffered saline (PBS, 10 mM, pH 7.4), incubated alone and with NMIs (20 μM) at 37° C. for 48 h. For concentration dependent inhibition, 10 μM Aβ peptide was incubated with 1, 2, 5, 10 and 20 μM of NMIs and incubated. Samples for oligomer inhibition studies were prepared by incubating Aβ alone and with NMIs at 4° C. for 24 and subjected to dot blot analysis. For dissolution studies, Aβ peptide alone was incubated in PBS for 48 h to prepare fibrils and then incubated with NMIs further for 48 h. For dot blot experiment, 5 μL of sample was blotted on activated PVDF (polyvinylidene fluoride) membrane in triplicates and air dried. The membrane was blocked with skimmed milk powder for 1 h at room temperature. The blot paper was washed with tris-buffered saline with 0.01% Tween 20 (TBST) three times for 5 min. Blot paper was treated with fibril specific OC primary antibody (Rabbit, 1:1000 dilution) overnight at 4° C. For oligomers blot A11 anti-oligomer antibody (Rabbit 1:1000) was used. […] Blots were analyzed and quantified by ImageJ software. […] The ability of NMIs (M3) to inhibit the formation of Aβ oligomers was assessed by dot blot assay. […]

T2 sequence (P05067 672-713 limits assumed): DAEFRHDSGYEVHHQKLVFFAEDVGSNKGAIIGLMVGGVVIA
T4 sequence (P05067 672-713 limits assumed): as above
T3 sequence (P05067 672-713 limits assumed): as above
T1 sequence (P05067 672-713 limits assumed): as above
T5 sequence (P05067 672-713 limits assumed): as above

Structure (SMILES) | Zn-dependent Aβ aggregation [1] | morphology of Aβ sample, aggregation inhibition [2] | inhibition of the formation of Aβ fibrils [3] [%] | interaction with Cu (II) and Zn (II), change in absorbance spectra [4] | dissolution efficiency [5] [%] | oligomer inhibition [6] [%]
O=C1c2cccc3c(N(Cc4ccccn4)Cc4ccccn4)ccc(c23)C(=O)N1CCN(Cc1ccccn1)Cc1ccccn1 [M4, 6-(bis(pyridin-2-ylmethyl)amino)-2-(2-(bis(pyridin-2-ylmethyl)amino)ethyl)-1H-benzo[de]isoquinoline-1,3(2H)-dione] | reduce Zn-dependent Aβ aggregation | fibrillar structures | ~11 | no significant change in the spectra | 43 | –
CN(C)c1ccc2c3c(cccc13)C(=O)N(CCN(Cc1ccccn1)Cc1ccccn1)C2=O [M2, 2-(2-(bis(pyridin-2-ylmethyl)amino)ethyl)-6-(dimethylamino)-1H-benzo[de]isoquinoline-1,3(2H)-dione] | – | fibrillar structures | ~11 | no significant change in the spectra | 25 | 40
